Measurements from patent US6797497B1, “Biological process for the production of ortho-aminophenols from nitroaromatic compounds using mutase” (The United States of America as represented by the …, priority 2001, dated 2004).

Biological target: T1, nitrobenzene nitroreductase (Ectopseudomonas oleovorans, UniProt Q6DLR9)
T1 construct: The fractions containing nitrobenzene nitroreductase activity, which eluted in the linear gradient between 65 to 80 ml, were pooled; made in house; host or cells: Pseudomonas pseudoalcaligenes JS45, the native organism (not recombinant); Crude extract fractionated on Q-Sepharose Fast Flow
Assay: Nitrobenzene nitroreductase activity on nitroarene substrates (NADPH oxidation)
Assay type: biochemical, Pseudomonas pseudoalcaligenes strain JS45
Conditions: partially purified enzyme; compound as substrate
Experimental: The crude extract was loaded on a 100 ml Q-Sepharose Fast Flow column (Pharmacia, XK-26) previously equilibrated with 150 mM KCl in 20 mM phosphate buffer. Proteins were eluted with a step gradient that began with 100 ml buffer containing KCl (150 mM) and then a linear gradient of 150 to 300 mM KCl at a flow rate of 2.5 ml/min.
A high performance liquid chromatograph (HPLC) equipped with a diode array detector monitoring A210 (Hewlett-Packard, Model 1040M, Wilmington Del.) was used to identify and quantitate the nitroarenes, intermediates and corresponding aminophenols. […] For the whole cell transformation experiments, the nitroarenes and products were separated on an ABZ column (Supelco, Bellefonte, Pa.) using acetonitrile/water as solvent system. Capillary gas chromatography/mass spectral (GC/MS) analyses were performed splitless on a Hewlett-Packard GC (model 5890) equipped with a mass selective detector (model 5971) and a DB-5 column (J & W Scientific, Folsom, Calif., 30 m long×0.25 mm I.D.×1.0 μm film thickness). The aminophenol derivatized with BSTFA was analyzed by GC/MS using the temperature program beginning at 100° C. and increased 10° C./min to 280° C. The n-butylboronic acid derivative was analyzed using an initial temperature of 50° C. increasing 20° C./min to 340°C.

T1 sequence (Q6DLR9 2-227): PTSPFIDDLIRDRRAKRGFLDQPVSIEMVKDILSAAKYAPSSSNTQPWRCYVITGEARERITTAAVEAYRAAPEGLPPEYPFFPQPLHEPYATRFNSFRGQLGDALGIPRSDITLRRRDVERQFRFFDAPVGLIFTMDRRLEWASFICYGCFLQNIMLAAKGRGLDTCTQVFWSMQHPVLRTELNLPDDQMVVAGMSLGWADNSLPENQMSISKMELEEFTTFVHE

Row | SMILES | rate of transformation by partially purified nitrobenzene nitroreductase [μmol/min/mg protein]
1 | O=[N+]([O-])c1ccc(Oc2ccccc2)cc1 [4-nitrobiphenyl ether] | 8.1
2 | O=[N+]([O-])c1ccccc1 [nitrobenzene] | 7.9
